{"source": "patent US8211912B2", "about": "“Compositions and methods for effecting NAD+ levels using a nicotinamide phosphoribosyl tranferase inhibitor” (Gemin X Pharmaceuticals Canada, priority 2007, dated 2012)", "key": {"IM-9 (Multiple myeloma)": {"tested_on": "IM-9 (Multiple myeloma)", "test": "Cell viability assay (72 h, ViaLight, relative ATP levels)", "assay_type": "cell-based, human", "experimental": "(§1) IC50 value for the compound was determined in IM-9 and HCT-116 cells by ViaLight essay as described supra."}, "[1]": {"tested_on": "DMS-114 human small cell lung carcinoma cells", "test": "Sensitization to DNA damaging chemotherapeutic agents, relative ATP viability, 3 days", "assay_type": "cell-based", "settings": "0.75 nM Compound 1 alone, 3 days; one value per experiment series (row agent); 0.00075 µM", "procedure": "Cells were plated in logarithmic growth phase at 500-20,000 cells per well in 96-well clear bottom plates (Corning; Corning, N.Y.) and cultured for 14 to 16 hours prior to the start of drug treatment. Serial dilutions of Compound 2 and Compound 1 were made in DMSO, diluted 1:50 in RPMI-1640 (Hyclone; Logan, Utah) and then added to tissue culture media at a final concentration of 0.2% DMSO. […] Relative ATP levels were determined by the bioluminescent measuring of cellular ATP levels in each culture well with the ViaLight-HS High Sensitivity Cytotoxicity and Cell Proliferation BioAssay Kit (Cambrex Bioproducts, Cat. No. LT07-311; Charles City, Iowa) according to manufacturer's instructions. Briefly, a cell permeabilizing reagent was added to each culture well in media at the time of viability determination, allowing free ATP to be released from viable cells in the culture. Addition of luciferase to the mixture catalyzes the release of light proportional to the amount of free ATP present, which can then be quantified in a Centro LB 960 luminometer (EG&G Berthold; Oak Ridge, Tenn.); the level of ATP is generally directly proportional to the viability of the cells.\nSigmoidal dose response curves were then generated using non-linear regression analysis of variable slope by Prism Version 4.00 for Windows (GraphPad Software, Inc.; San Diego, Calif.) and IC50 values calculated.\nThe IC50 values for the treatment with the DNA damaging agent were calculated relative to control cells that were treated with DMSO only."}, "[2]": {"tested_on": "HeLa cells transfected with pcFLAG-PNC1", "test": "Compound 1 cytotoxicity in cells overexpressing yeast PNC1, ViaLight 72 h", "settings": "pcFLAG-PNC1 vs pcDNA3, 72 h ViaLight", "experimental": "Viability was measured after 72 hours by ViaLight assay. […] Each point represents the mean and error bars the SD of triplicate samples. […] The concentration of nicotinamide in RPMI 1640 media was […]. HeLa cells were transiently transfected with vector (pcDNA3) or a plasmid expressing a flag-tagged yeast PNC1 gene (pcFLAG-PNC1). […] Relative viability was assessed after 72 hours by ViaLight assay."}, "[3]": {"tested_on": "FaDu cells (human hypopharyngeal squamous cancer)", "test": "Clonogenic survival with radiation therapy", "assay_type": "cell-based", "settings": "Compound 1 10 nM for 24 hours prior to 0-10 Gy", "experimental": "FaDu cells (human hypopharyngeal squamous cancer) were obtained from American Type Culture Collection (Manassas, Va.) and cultured according to specifications. FaDu cells were seeded in 96-well plates at densities of 5,000 per well and incubated overnight at 37° C. to allow for cell attachment.\nCells were irradiated at room temperature using a ^137Cs unit (Gamma-cell 40 Extractor; Nordion International, Inc.; Ontario, Canada) at a dose rate of about 1.1 Gy/min. The cells were then administered 0, 2, 4, 6, 8, or 10 Gy of radiation. About 48 hours after radiation therapy, the drug-containing medium was replaced with fresh growth medium and the plates were incubated at 37° C. Nine days after seeding, colonies were fixed in 70% ethanol, stained with 10% methylene blue, and colonies of ≧50 cells were counted. The surviving fraction was determined as the ratio of the number of colonies in the treated sample to that of the non-treated control sample. Eight wells were set up for each condition and the experiment was performed three times and all data are reported as mean±SE.\nThus, Compound 1 sensitizes the head and neck squamous tumor forming cells to radiation therapy."}, "human NMPRT": {"target": "human NMPRT (Homo sapiens, UniProt P43490)", "sequence (P43490 whole entry)": "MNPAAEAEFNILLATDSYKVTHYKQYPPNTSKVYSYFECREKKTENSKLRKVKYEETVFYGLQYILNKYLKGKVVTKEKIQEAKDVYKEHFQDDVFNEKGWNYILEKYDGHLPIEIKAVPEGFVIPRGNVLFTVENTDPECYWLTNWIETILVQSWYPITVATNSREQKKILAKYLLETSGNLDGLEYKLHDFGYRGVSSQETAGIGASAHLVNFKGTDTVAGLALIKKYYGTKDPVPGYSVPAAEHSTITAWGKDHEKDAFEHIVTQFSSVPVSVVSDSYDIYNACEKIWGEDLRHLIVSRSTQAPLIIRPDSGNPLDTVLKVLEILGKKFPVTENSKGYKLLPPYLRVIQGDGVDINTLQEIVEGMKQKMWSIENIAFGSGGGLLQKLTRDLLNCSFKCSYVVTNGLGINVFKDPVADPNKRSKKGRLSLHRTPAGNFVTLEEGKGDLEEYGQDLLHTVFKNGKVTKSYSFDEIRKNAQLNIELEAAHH", "test": "Recombinant NMPRT coupled-enzyme fluorescence assay", "assay_type": "biochemical", "design": "made in house; host or cells: E. coli BL21(DE3)pLysS", "settings": "two independent experiments; Cheng-Prusoff; His-Flag tagged recombinant NMPRT", "experimental": "Human NMPRT cDNA (Origene; Rockville, Md.) was cloned into the pET151 vector (Invitrogen; Carlsbad, Calif.). The resulting construct encodes a recombinant NMPRT protein with hexahistidine and FLAG epitope tags at the NH2-terminus. Four liters of BL21(DE3)pLysS bacteria (Invitrogen; Carlsbad, Calif.) at O.D. ˜0.6 in LB media were induced to express the NMPRT protein with 200 μM IPTG (Roche Diagnostics; Mannheim, Germany) for 3.5 hours with shaking (250 rpm) at 37° C. The bacterial cells were harvested by centrifugation at 6,000 g for 15 minutes at 4° C., the supernatant was discarded and the cells frozen at −20° C. […] The protein concentration was determined by Bradford assay (Bio-Rad; Hercules, Calif.).\nThe activity of recombinant NMPRT was assessed using a coupled-enzyme fluorescence assay based on the quantitation of NAD^+. […] Fluorescence was measured using a Tecan Safire plate reader (Tecan-US; Durham, N.C.) with an excitation wavelength of 560 nm and emission wavelength of 590 nm. The Km for nicotinamide was determined for every preparation of the enzyme and a titration of NAD^+ was run with every assay to ensure that measurements were within the linear range. […] The Ki was calculated using Prism version 4.0 (Graphpad Software, Inc; San Diego, Calif.) and the Cheng-Prusoff Equation. […]\nas §1"}, "[4]": {"tested_on": "NAD^+ synthesis in HeLa cells and HeLa cell extracts", "test": "Conversion of ^14C nicotinamide or ^14C nicotinic acid to ^14C-labeled NAD^+ (TLC)", "settings": "Compound 1 20 nM", "procedure": "In vivo: HeLa cells (1×10^6 per sample) were plated 14-16 hours prior to the start of drug treatment. […] Cells were harvested by trypsinization and collected by centrifugation, and cell pellets resuspended in 50 μl of 10 mM NaH2PO4. To extract the radiolabeled nucleotide metabolites, the cells were lysed by 6 freeze-thaw cycles of liquid nitrogen/37° C. water bath. Precipitates were removed by centrifugation at 13,000 g for 20 mins.\nIn vitro: Untreated HeLa cells were harvested by trypsinization, collected by centrifugation and resuspended at 2.5×10^7 cells/mL in 10 mM NaH2PO4 buffer then cell extracts were made by 6 freeze-thaw cycles as above and cell extracts clarified by centrifugation at 23,000 g at 4° C. for 90 mins. […] The reaction was terminated by incubation at 100° C. for 2 mins. The radiolabeled nucleotides were separated by thin-layer chromatography and identified by comparison with radiolabeled standards of NAD^+, its precursors and metabolites (Moravek Biochemicals; Brea, Calif.). Approximately 10 μL of each sample was spotted onto Silica gel 60 plates (Merck KGaA, EMD chemicals Inc; Gibbstown, N.J.) and resolved in a solvent of isobutyric acid: ammonium hydroxide:water (66:1:33) overnight. The dried TLC plates were then exposed to BAS-MS screens (Fuji Photo Film Co. LTD; Kanagawa, Japan) for 2-3 days, scanned on a Typhoon Imager (Amersham; Piscataway, N.J.). […]"}}, "note": "Values joined by “and” are separate entries in the source; they are usually repeats but may differ in a detail not shown here. Equal values may be shown once."}
{"substance": "4-[N′-cyano-N″-(6-(4-chlorophenoxy)-hexyl)-N-guanidino]-pyridine [Compound 1]", "values": [{"measurement": "IC50", "setting": "IM-9 (Multiple myeloma)", "result": "3.33 ± 0.66", "unit": "nM"}, {"measurement": "Percent viability of DMS-114 cells, 0.75 nM Compound 1 (no DNA damaging chemotherapeutic agent)", "setting": "[1]", "result": "47.7 ± 12% and 61.9 ± 16% and 57.9% and 53.20 ± 9.1%"}, {"measurement": "Effect of yeast PNC1 overexpression on Compound 1 cytotoxicity", "setting": "[2]", "result": "rescued"}, {"measurement": "Survival of FaDu cells with radiation therapy", "setting": "[3]", "result": "reduces survival of FaDu cells compared to radiation therapy alone"}, {"measurement": "Ki", "setting": "human NMPRT", "result": 1, "unit": "nM"}, {"measurement": "NAD^+ synthesis from nicotinamide", "setting": "[4]; ^14C nicotinamide", "result": "blocks"}, {"measurement": "NAD^+ synthesis from nicotinic acid", "setting": "[4]; ^14C nicotinic acid", "result": "not"}]}
